{
  "source": "ChEMBL document CHEMBL5360641",
  "about": "“4'-Ethynyl-2'-deoxy-2'-β-fluoro-2-fluoroadenosine: A Highly Potent and Orally Available Clinical Candidate for the Treatment of HIV-1 Infection” (J Med Chem, 2023)",
  "key": {"[1]": {"tested_on": "Human immunodeficiency virus 1", "assay": "Antiviral activity against HIV1 TC-1 infected in human PBMC assessed as inhibition of viral replication by measuring reduction in p24 antigen level incubated for 3 to 7 days by ELISA analysis", "assay_type": "functional, organism-based", "settings": "Human immunodeficiency virus 1, TC-1, PBMC"}, "[2]": {"tested_on": "Human immunodeficiency virus 1", "assay": "Antiviral activity against HIV1 4755-5 infected in human C8166 cells assessed as inhibition of viral replication by measuring reduction in p24 antigen level incubated for 3 to 7 days by ELISA analysis", "assay_type": "functional, organism-based", "settings": "Human immunodeficiency virus 1, 4755-5, C8166"}, "[3]": {"assay": "Cytotoxicity against HEK293T cells assessed as reduction in cell viability by MTT assay", "assay_type": "toxicity, cell-based, HEK-293T", "settings": "human"}, "[4]": {"tested_on": "Human immunodeficiency virus 1", "assay": "Antiviral activity against HIV1 WAN infected in human PBMC assessed as inhibition of viral replication by measuring reduction in p24 antigen level incubated for 3 to 7 days by ELISA analysis", "assay_type": "functional, organism-based", "settings": "Human immunodeficiency virus 1, WAN"}, "[5]": {"tested_on": "Human immunodeficiency virus 1", "assay": "Antiviral activity against HIV1 KIZ001 infected in human PBMC assessed as inhibition of viral replication by measuring reduction in p24 antigen level incubated for 3 to 7 days by ELISA analysis", "assay_type": "functional, organism-based", "settings": "Human immunodeficiency virus 1, KIZ001, PBMC"}, "[6]": {"assay": "Selectivity index, ratio of CC50 for cytotoxicity against HEK293T cells assessed as reduction in cell viability by MTT assay to EC50 for antiviral activity against HIV1 VSV-G pseudotyped virus infected in human HEK293T cells assessed as inhibition of viral growth", "assay_type": "toxicity, cell-based", "settings": "read-out: Ratio CC50/EC50"}, "[7]": {"tested_on": "Human immunodeficiency virus 1", "assay": "Antiviral activity against HIV1 IIIB infected in human C8166 cells assessed as inhibition of viral replication by measuring reduction in p24 antigen level incubated for 3 to 7 days by ELISA analysis", "assay_type": "functional, organism-based", "settings": "Human immunodeficiency virus 1, IIIB"}, "[8]": {"tested_on": "Human immunodeficiency virus 1", "assay": "Antiviral activity against HIV-1 harboring integrase G140S/Q148H double mutant infected in human TZM-bl cells assessed as inhibition of viral replication incubated for 3 to 7 days by luciferase assay", "assay_type": "functional, organism-based", "settings": "Human immunodeficiency virus 1, TZM-bl"}, "[9]": {"tested_on": "Human immunodeficiency virus 1", "assay": "Antiviral activity against HIV1 IIIB infected in human C8166 cells assessed as inhibition of syncytia formation incubated for 3 to 7 days by syncytia assays", "assay_type": "functional, organism-based", "settings": "Human immunodeficiency virus 1, IIIB"}, "[10]": {"tested_on": "Human immunodeficiency virus 1", "assay": "Antiviral activity against HIV1 IIIB infected in human MT4 cells assessed as inhibition of viral replication incubated for 3 to 7 days by MTT analysis", "assay_type": "functional, organism-based", "settings": "Human immunodeficiency virus 1, IIIB"}, "[11]": {"tested_on": "Human immunodeficiency virus 1", "assay": "Antiviral activity against HIV1 VSV-G pseudotyped virus infected in human HEK293T cells assessed as inhibition of viral growth preincubated for 3 hrs followed by washout and further incubated with compound for 72 hrs by luciferase assay", "assay_type": "functional, organism-based", "settings": "Human immunodeficiency virus 1, HEK-293T"}},
  "note": "pEC50: −log10 of the molar value.",
  "data": [
    {"smiles": "Nc1ccn([C@@H]2CS[C@H](CO)O2)c(=O)n1", "note": "[LAMIVUDINE]", "values": [
      {"measurement": "pEC50", "setting": "[1]", "result": 6.68},
      {"measurement": "pEC50", "setting": "[2]", "result": "< 3.70"},
      {"measurement": "CC50", "setting": "[3]", "result": "> 100000", "unit": "nM"},
      {"measurement": "pEC50", "setting": "[4]", "result": 6.27},
      {"measurement": "pEC50", "setting": "[5]", "result": 7.14},
      {"measurement": "selectivity ratio", "setting": "[6]", "result": "> 588"},
      {"measurement": "pEC50", "setting": "[7]", "result": 6.07},
      {"measurement": "pEC50", "setting": "[8]", "result": 6.86},
      {"measurement": "pEC50", "setting": "[9]", "result": 6.70},
      {"measurement": "pEC50", "setting": "[10]", "result": 6.78},
      {"measurement": "pEC50", "setting": "[11]", "result": 6.77}
    ]}
  ]
}
